{"source": "paper PMC7415729", "about": "(Pharmacology, biochemistry, and behavior, 2020)", "key": {"C57BL/6 mice [1]": {"test_system": "C57BL/6 mice", "test": "Radiotelemetry of core temperature with 1-ABT pretreatment", "format": "in vivo, mouse"}, "[2]": {"test_system": "HIM (human intestinal microsomes)", "test": "Oxidative metabolism by human microsomes", "format": "in vitro ADME", "conditions": "50 μM 5F-AKB48, HIM 1 μg/μl, 60 min"}, "C57BL/6 mice [3]": {"test_system": "C57BL/6 mice", "test": "Cannabinoid tetrad: catalepsy", "format": "in vivo, mouse"}, "[4]": {"test_system": "HLM (human liver microsomes)", "test": "Oxidative metabolism by human microsomes", "format": "in vitro ADME", "conditions": "50 μM 5F-AKB48, mixed gender HLM 1 μg/μl, 60 min"}, "[5]": {"test_system": "HBM (human brain microsomes)", "test": "Oxidative metabolism by human microsomes", "format": "in vitro ADME", "conditions": "50 μM 5F-AKB48, HBM 1 μg/μl, 60 min"}, "C57BL/6 mice [6]": {"test_system": "C57BL/6 mice", "test": "Cannabinoid tetrad: hypothermia", "format": "in vivo, mouse", "conditions": "for reduction of rectal temperature below the physiological range: highest tested dose"}, "CB1 receptors [7]": {"target": "T1, CB1 receptors (Mus musculus, UniProt P47746)", "T1 sequence (P47746 whole entry)": "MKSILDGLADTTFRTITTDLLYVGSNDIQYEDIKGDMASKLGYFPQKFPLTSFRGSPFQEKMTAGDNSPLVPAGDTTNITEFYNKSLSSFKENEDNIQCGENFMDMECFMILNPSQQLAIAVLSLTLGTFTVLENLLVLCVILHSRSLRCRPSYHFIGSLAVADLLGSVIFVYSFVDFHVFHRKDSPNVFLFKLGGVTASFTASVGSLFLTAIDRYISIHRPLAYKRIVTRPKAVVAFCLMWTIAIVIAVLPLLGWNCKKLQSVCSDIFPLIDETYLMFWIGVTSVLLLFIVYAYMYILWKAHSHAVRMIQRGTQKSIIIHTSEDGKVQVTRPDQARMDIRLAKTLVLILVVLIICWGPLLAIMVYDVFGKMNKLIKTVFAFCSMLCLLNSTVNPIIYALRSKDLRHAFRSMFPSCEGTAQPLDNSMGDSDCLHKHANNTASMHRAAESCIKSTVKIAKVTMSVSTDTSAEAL", "test": "[35S]GTPγS binding", "conditions": "for EC50: N=3"}, "C57BL/6 mice [8]": {"test_system": "C57BL/6 mice", "test": "Cannabinoid tetrad: locomotor activity", "format": "in vivo, mouse", "conditions": "for decrease of locomotor activity below the vehicle control condition: highest tested dose"}, "C57BL/6 mice [9]": {"test_system": "C57BL/6 mice", "test": "Cannabinoid tetrad: antinociception", "format": "in vivo, mouse", "conditions": "for tail withdrawal latency, % of the maximum: maximal latency 10 sec"}, "CB1 receptors [10]": {"target": "T1, CB1 receptors", "test": "Competition receptor binding vs [3H]CP-55,940 in mouse brain membranes", "conditions": "pKi, displacement of 0.2 nM [3H]CP-55,940, mouse brain membranes, N=3"}, "[11]": {"conditions": "5F-AKB48 3.2 mg/kg, mice pretreated with 100 mg/kg 1-ABT"}, "[12]": {"conditions": "5F-AKB48 3.2 mg/kg, vehicle-pretreated mice"}, "[13]": {"conditions": "rimonabant 10.0 mg/kg i.p. before 3.2 mg/kg 5F-AKB48"}, "[14]": {"conditions": "rimonabant 10.0 mg/kg i.p. before 32 mg/kg Δ9-THC"}}}
{"smiles": "Nn1nnc2ccccc21", "note": "[1-ABT, reference compound]", "values": [{"measurement": "effect on core temperature", "setting": "C57BL/6 mice [1]; 100 mg/kg 1-ABT alone, 2 hours", "result": "no systematic changes in temperature"}]}
{"smiles": "O=C(NC12CC3CC(CC(C3)C1)C2)c1nn(CCCCCF)c2ccccc12", "note": "[5F-AKB48, N-(adamantan-1-yl)-1-(5-fluoropentyl)-1H-indazole-3-carboxamide]", "values": [{"measurement": "oxidative activity / metabolite production", "setting": "[2]", "result": "significant amount of activity"}, {"measurement": "time by which cataleptic effects largely resolved", "setting": "C57BL/6 mice [3]; 5F-AKB48 3.2 mg/kg i.p.", "result": "≤ 3", "unit": "h"}, {"measurement": "horizontal bar latency", "setting": "C57BL/6 mice [3]; 5F-AKB48 3.2 mg/kg i.p., any time point, 30 sec cut-off", "result": "< 30", "unit": "s"}, {"measurement": "production of hydroxylated metabolites", "setting": "[4]", "result": "highest amount"}, {"measurement": "oxidative activity", "setting": "[5]", "result": "did not show any activity"}, {"measurement": "time by which hypothermic effects completely resolved", "setting": "C57BL/6 mice [6]; 5F-AKB48 3.2 mg/kg i.p.", "result": "≤ 4", "unit": "h"}, {"measurement": "reduction of rectal temperature below the physiological range", "setting": "C57BL/6 mice [6]; 5F-AKB48 3.2 mg/kg i.p.", "result": "approximately 4 °"}, {"measurement": "G protein activation by 1 μM compound on co-incubation with rimonabant", "setting": "CB1 receptors [7]; 1 μM compound + rimonabant 100 nM, mouse brain membranes", "result": "complete reversal"}, {"measurement": "EC50", "setting": "CB1 receptors [7]; pEC50, [35S]GTPγS binding, mouse brain membranes", "result": 6.24, "unit": "nM"}, {"measurement": "EC50", "setting": "CB1 receptors [7]; potency (EC50), [35S]GTPγS binding, mouse brain membranes 25 μg", "result": 7.7, "unit": "nM"}, {"measurement": "Emax", "setting": "CB1 receptors [7]; read-out: Emax, increase of [35S]GTPγS binding", "result": 182, "unit": "%"}, {"measurement": "duration of hypothermic action", "setting": "C57BL/6 mice [1]; [11]", "result": "at least 12 hours"}, {"measurement": "minimum core temperature below the physiological range", "setting": "C57BL/6 mice [1]; [11]", "result": "approximately 7 °"}, {"measurement": "minimum core temperature below the physiological range", "setting": "C57BL/6 mice [1]; [12]", "result": "approximately 7 °"}, {"measurement": "time by which hypothermic effects completely resolved", "setting": "C57BL/6 mice [1]; [12]", "result": "≤ 4", "unit": "h"}, {"measurement": "area under the curve for hypothermic effects, 1-ABT-treated vs vehicle mice", "setting": "C57BL/6 mice [1]; 5F-AKB48 3.2 mg/kg, 100 mg/kg 1-ABT pretreatment", "result": "approximately 5 fold"}, {"measurement": "decrease of locomotor activity below the vehicle control condition", "setting": "C57BL/6 mice [8]; 5F-AKB48 3.2 mg/kg i.p.", "result": "approximately 5 fold"}, {"measurement": "duration of antinociceptive effects (still apparent)", "setting": "C57BL/6 mice [9]; 5F-AKB48 3.2 mg/kg i.p.", "result": "at least 6 hours"}, {"measurement": "tail withdrawal latency, % of the maximum", "setting": "C57BL/6 mice [9]; 5F-AKB48 3.2 mg/kg i.p., by 15 min post-injection", "result": "approximately 90%"}, {"measurement": "Ki", "setting": "CB1 receptors [10]", "result": 0.665, "unit": "nM"}]}
{"smiles": "Cc1c(C(=O)NN2CCCCC2)nn(-c2ccc(Cl)cc2Cl)c1-c1ccc(Cl)cc1", "note": "[rimonabant]", "values": [{"measurement": "effect of prior rimonabant on cataleptic effects of 5F-AKB48", "setting": "C57BL/6 mice [3]; [13]", "result": "completely blocked"}, {"measurement": "effect of prior rimonabant on cataleptic effects of Δ9-THC", "setting": "C57BL/6 mice [3]; [14]", "result": "completely blocked"}, {"measurement": "effect of prior rimonabant on hypothermic effects of 5F-AKB48", "setting": "C57BL/6 mice [6]; [13]", "result": "completely blocked"}, {"measurement": "effect of prior rimonabant on hypothermic effects of Δ9-THC", "setting": "C57BL/6 mice [6]; [14]", "result": "completely blocked"}, {"measurement": "effect of prior rimonabant on hypolocomotor effects of 5F-AKB48", "setting": "C57BL/6 mice [8]; [13]", "result": "partially attenuated"}, {"measurement": "effect of prior rimonabant on hypolocomotor effects of Δ9-THC", "setting": "C57BL/6 mice [8]; [14]", "result": "partially attenuated"}, {"measurement": "effect of prior rimonabant on antinociceptive effects of 5F-AKB48", "setting": "C57BL/6 mice [9]; [13]", "result": "completely blocked"}, {"measurement": "effect of prior rimonabant on antinociceptive effects of Δ9-THC", "setting": "C57BL/6 mice [9]; [14]", "result": "completely blocked"}]}
{"smiles": "CCCCCc1cc(O)c2c(c1)OC(C)(C)[C@@H]1CCC(C)=C[C@@H]21", "note": "[Δ^9-THC, Δ^9-tetrahydrocannabinol]", "values": [{"measurement": "duration of cataleptic effects (still apparent)", "setting": "C57BL/6 mice [3]; Δ9-THC 32 mg/kg i.p.", "result": "≥ 6", "unit": "h"}, {"measurement": "horizontal bar latency", "setting": "C57BL/6 mice [3]; Δ9-THC 32 mg/kg i.p., by 15 min post-injection, 30 sec maximum", "result": "~30", "unit": "s"}, {"measurement": "duration of hypothermic effects (still apparent after drug administration)", "setting": "C57BL/6 mice [6]; Δ9-THC 32 mg/kg i.p.", "result": "≥ 6", "unit": "h"}, {"measurement": "reduction of rectal temperature below the physiological range", "setting": "C57BL/6 mice [6]; Δ9-THC 32 mg/kg i.p.", "result": "approximately 4 °"}, {"measurement": "decrease of locomotor activity below the vehicle control condition", "setting": "C57BL/6 mice [8]; Δ9-THC 32 mg/kg i.p.", "result": "approximately 5 fold"}, {"measurement": "duration of antinociceptive effects (still apparent)", "setting": "C57BL/6 mice [9]; Δ9-THC 32 mg/kg i.p.", "result": "at least 6 hours"}, {"measurement": "tail withdrawal latency, % of the maximum", "setting": "C57BL/6 mice [9]; Δ9-THC 32 mg/kg i.p., by 30 min post-injection", "result": "approximately 90%"}]}
